This is an account of results in US20100004221A1, “THIAZEPINE DERIVATIVE” (DAIICHI SANKYO COMPANY, LIMITED, priority 2006, published 2010).

Molecules are shown by their SMILES.

T1 sequence (P28845 whole entry): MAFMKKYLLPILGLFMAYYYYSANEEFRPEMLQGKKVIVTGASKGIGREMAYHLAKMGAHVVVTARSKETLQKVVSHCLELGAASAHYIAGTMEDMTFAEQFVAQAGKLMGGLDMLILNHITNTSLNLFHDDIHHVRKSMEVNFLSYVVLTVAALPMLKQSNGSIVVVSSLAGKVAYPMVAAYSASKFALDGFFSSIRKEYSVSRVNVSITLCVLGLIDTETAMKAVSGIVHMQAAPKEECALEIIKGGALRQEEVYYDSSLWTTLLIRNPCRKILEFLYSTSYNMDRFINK

The first series addresses T1, human 11β-HSD1 (Homo sapiens, UniProt P28845).
T1 construct: cDNA coding for a full-length of human 11β-HSD1 in a mammal cell expression vector pCIneo; made in house; host or cells: HEK293 cells (transient transfection with pCIneo plasmid); microsome fraction used as enzyme source
Nature of the series: 11β-HSD1 enzyme inhibition experiment. It counts as biochemical. Particulars: test compound at 39 nM; microsome fraction of HEK293 cells expressing human 11β-HSD1; cortisone 160 nM, room temperature, 3 h; read-out: inhibiting effects on cortisol production dependent on the 11β-HSD1 expressing cells. As to the method:
A plasmid obtained by incorporating cDNA coding for a full-length of human 11β-HSD1 in a mammal cell expression vector pCIneo (Promega Corporation) was introduced into HEK293 cells using Lipofectamine Plus Reagent (Invitrogen Corporation) according to the package insert. 48 h later, cells were collected and frozen at −80° C. Cells into which the pCIneo vector was introduced were prepared as a control. Cells were thawed and suspended in 20 mM HEPES, 1 mM ethylenediamine tetraacetic acid, 2 mM magnesium chloride (final concentrations), and a buffer containing a protease inhibitor cocktail (Roche), and 4.1 Mpa pressure was applied by N2 cavitation on the ice for 30 min to disrupt cells. The disrupted cell suspension was centrifuged at 1000×g at 4° C. for 10 min, and a supernatant thereof was recovered. The obtained supernatant was further ultracentrifuged at 105,000×g at 4° C. for 30 min, and the resulting precipitate was suspended in an assay buffer (50 mM tris buffer, 10% glycerol) as a microsome fraction and used as an enzyme source.
A reaction was performed on a 384-well plate (Greiner Bio One) using a reaction volume of 25 μL, and all the samples were diluted with an assay buffer (50 mM tris buffer, pH 7.4, 10% glycerol). 0.8 mM NADPH, 6 mM glucose 6-phosphate, 0.35 units/mL glucose 6-phosphate dehydrogenase (Sigma Chemical), and 3 mM magnesium chloride and a microsome fraction having a protein amount of 0.7 μg per well (final concentrations) were added to the plate, and a solution containing a test compound dissolved in dimethyl sulfoxide was added at a final concentration of 0.1% and preincubated at room temperature for 15 min. After completion of preincubation, cortisone at a final concentration of 160 nM was added to start a reaction, and the reaction was performed at room temperature for 3 h. 25 μL of 100 mM carbenoxolone (Sigma Chemical) was added to terminate the reaction, and the amount of produced cortisol was measured with Discovery (Hewlett-Packard Company) using a cortisol prototype kit (Cisbio International) according to the package insert.
Regarding `COc1cc(-c2ccc(F)c(Cl)c2)ccc1-c1nnc2n1CCSC(C)(CO)C2` (centres unmarked) [Example 32, [3-(3′-Chloro-4′-fluoro-3-methoxybiphenyl-4-yl)-8-methyl-5,6,8,9-tetrahydro[1,2,4]triazolo[4,3-d][1,4]thiazepin-8-yl]methanol], the inhibition at 0.039 µM was 35.8%.
`CC1(CO)Cc2nnc(-c3ccc(-c4ccc(F)cc4)cc3Cl)n2CCS1` (centres unmarked) [Example 1, [3-(3-Chloro-4′-fluorobiphenyl-4-yl)-8-methyl-5,6,8,9-tetrahydro[1,2,4]triazolo[4,3-d][1,4]thiazepin-8-yl]methanol]: the inhibition at 0.039 µM stood at 71.8%.
Regarding `CC1(C2CC2)Cc2nnc(-c3ccccc3Cl)n2CCS1` (centres unmarked) [Example 52, 3-(2-Chlorophenyl)-8-cyclopropyl-8-methyl-5,6,8,9-tetrahydro[1,2,4]triazolo[4,3-d][1,4]thiazepine], the inhibition at 0.039 µM stood at 89%.
For `Cc1c(-c2nnc3n2CCSC(C)(CO)C3)sc2ccc(Cl)cc12` (centres unmarked) [Example 8, [3-(5-Chloro-3-methyl-1-benzothiophen-2-yl)-8-methyl-5,6,8,9-tetrahydro[1,2,4]triazolo[4,3-d][1,4]thiazepin-8-yl]methanol], the inhibition at 0.039 µM came out at 67.1%.

System in another series: not given
Experiment: not given
Conditions: not given
In general, melting point refers to the temperature of the solid-liquid transition. Consider `COc1cc(-c2ccc(F)c(Cl)c2)ccc1-c1nnc2n1CCSC(C)(CO)C2` (centres unmarked) [Example 32, [3-(3′-Chloro-4′-fluoro-3-methoxybiphenyl-4-yl)-8-methyl-5,6,8,9-tetrahydro[1,2,4]triazolo[4,3-d][1,4]thiazepin-8-yl]methanol], for which the melting point was 238 to 241 °C.
Compound `CC1(CO)Cc2nnc(-c3ccc(-c4ccc(F)cc4)cc3Cl)n2CCS1` (centres unmarked) [Example 1, [3-(3-Chloro-4′-fluorobiphenyl-4-yl)-8-methyl-5,6,8,9-tetrahydro[1,2,4]triazolo[4,3-d][1,4]thiazepin-8-yl]methanol] had a melting point of 190 to 193 °C.
Regarding `COc1cc(-c2cccc(C#N)c2)ccc1-c1nnc2n1CCSC(C)(CO)C2` (centres unmarked) [Example 25, 4′-[8-(Hydroxymethyl)-8-methyl-5,6,8,9-tetrahydro[1,2,4]triazolo[4,3-d][1,4]thiazepin-3-yl]-3′-methoxybiphenyl-3-carbonitrile], the melting point was 232 to 236 °C.
Take `Cc1ccccc1-c1nnc2n1CCSC(C)(C)C2` [Example 46, 8,8-Dimethyl-3-(2-methylphenyl)-5,6,8,9-tetrahydro[1,2,4]triazolo[4,3-d][1,4]thiazepine]: the melting point is 106 to 107 °C.
In the case of `COc1cccc(-c2ccc(-c3nnc4n3CCSC(C)(CO)C4)c(Cl)c2)c1` (centres unmarked) [Example 18, [3-(3-Chloro-3′-methoxybiphenyl-4-yl)-8-methyl-5,6,8,9-tetrahydro[1,2,4]triazolo[4,3-d][1,4]thiazepin-8-yl]methanol], the melting point was in the range of 181 to 184 °C.
`CC1(CO)Cc2nnc(-c3cccc(-c4ccc(F)cc4)c3Cl)n2CCS1` (centres unmarked) [Example 33, [3-(2-Chloro-4′-fluorobiphenyl-3-yl)-8-methyl-5,6,8,9-tetrahydro[1,2,4]triazolo[4,3-d][1,4]thiazepin-8-yl]methanol]: the melting point lay within 192 to 195 °C.
For `CC1(CO)Cc2nnc(-c3ccc(-c4ccc(F)cc4)cc3C(F)(F)F)n2CCS1` (centres unmarked) [Example 22, {3-[4′-Fluoro-3-(trifluoromethyl)biphenyl-4-yl)-8-methyl-5,6,8,9-tetrahydro[1,2,4]triazolo[4,3-d][1,4]thiazepin-8-yl]methanol], the melting point was 202 to 204 °C.
The same measure, in the same setting: under `Cc1ccc(-c2ccc(-c3nnc4n3CCSC(C)(CO)C4)c(Cl)c2)cc1` (centres unmarked) [Example 20, [3-(3-Chloro-4′-methylbiphenyl-4-yl)-8-methyl-5,6,8,9-tetrahydro[1,2,4]triazolo[4,3-d][1,4]thiazepin-8-yl]methanol] stands 223 to 225 °C; under `CC1(CO)Cc2nnc(-c3ccc(-c4ccc(F)cc4)cc3Cl)n2CCS1` (single isomer, unassigned; (+)) [Example 57, (+)-[3-(3-Chloro-4′-fluorobiphenyl-4-yl)-8-methyl-5,6,8,9-tetrahydro[1,2,4]triazolo[4,3-d][1,4]thiazepin-8-yl]methanol], 211 to 214 °C; under `CC1(CO)Cc2nnc(-c3ccc(-c4cccnc4)cc3Cl)n2CCS1` (centres unmarked) [Example 35, {3-[2-Chloro-4-(pyridin-3-yl)phenyl]-8-methyl-5,6,8,9-tetrahydro[1,2,4]triazolo[4,3-d][1,4]thiazepin-8-yl}methanol], 206 to 209 °C.
On to `CC1(CO)Cc2nnc(-c3ccc(-c4cccc(Cl)c4)cc3F)n2CCS1` (centres unmarked) [Example 11, [3-(3′-Chloro-3-fluorobiphenyl-4-yl)-8-methyl-5,6,8,9-tetrahydro[1,2,4]triazolo[4,3-d][1,4]thiazepin-8-yl]methanol], for which the melting point was 165 to 168 °C.
Same read-out and setting: with `CC1(CO)Cc2nnc(-c3cc(-c4ccc(F)cc4)ccc3Cl)n2CCS1` (centres unmarked) [Example 34, [3-(4-Chloro-4′-fluorobiphenyl-3-yl)-8-methyl-5,6,8,9-tetrahydro[1,2,4]triazolo[4,3-d][1,4]thiazepin-8-yl]methanol] the figure was 165 to 168 °C; with `COc1cc(-c2ccc(F)c(F)c2)ccc1-c1nnc2n1CCSC(C)(CO)C2` (centres unmarked) [Example 31, [3-(3′,4′-Difluoro-3-methoxybiphenyl-4-yl)-8-methyl-5,6,8,9-tetrahydro[1,2,4]triazolo[4,3-d][1,4]thiazepin-8-yl]methanol], 183 to 185 °C.
The compound `CC1(CO)Cc2nnc(-c3ccc(N4CCCC4)cc3Cl)n2CCS1` (centres unmarked) [Example 39, {3-[2-Chloro-4-(pyrrolidin-1-yl)phenyl]-8-methyl-5,6,8,9-tetrahydro[1,2,4]triazolo[4,3-d][1,4]thiazepin-8-yl}methanol] gave a melting point of 193 to 196 °C.
Compound `CC1(C)Cc2nnc(-c3ccccc3Cl)n2CCS1` [Example 45, 3-(2-Chlorophenyl)-8,8-dimethyl-5,6,8,9-tetrahydro[1,2,4]triazolo[4,3-d][1,4]thiazepine] yielded a melting point of 183 to 185 °C.
Regarding `CC1(CO)Cc2nnc(-c3ccc(-c4ccccc4F)cc3Cl)n2CCS1` (centres unmarked) [Example 13, [3-(3-Chloro-2′-fluorobiphenyl-4-yl)-8-methyl-5,6,8,9-tetrahydro[1,2,4]triazolo[4,3-d][1,4]thiazepin-8-yl]methanol], the melting point lay in the range of 147 to 149 °C.
Compound `CC1(CO)Cc2nnc(-c3ccc(-c4ccc(Cl)cc4)cc3Cl)n2CCS1` (centres unmarked) [Example 19, [3-(3,4′-Dichlorobiphenyl-4-yl)-8-methyl-5,6,8,9-tetrahydro[1,2,4]triazolo[4,3-d][1,4]thiazepin-8-yl]methanol] displayed a melting point of 219 to 223 °C.
`CC1(CO)Cc2nnc(-c3ccc(-c4ccc(F)cc4)cc3Cl)n2CCS1` (single isomer, unassigned; (-)) [Example 56, (−)-[3-(3-chloro-4′-fluorobiphenyl-4-yl)-8-methyl-5,6,8,9-tetrahydro[1,2,4]triazolo[4,3-d][1,4]thiazepin-8-yl]methanol] returned a melting point of 212 to 215 °C.
`CC1(CO)Cc2nnc(-c3ccc(-c4ccc(F)c(F)c4)cc3Cl)n2CCS1` (centres unmarked) [Example 26, [3-(3-Chloro-3′,4′-difluorobiphenyl-4-yl)-8-methyl-5,6,8,9-tetrahydro[1,2,4]triazolo[4,3-d][1,4]thiazepin-8-yl]methanol] came in with a melting point of 231 to 234 °C.
